Results on four compounds are retold here after patent US20150297672A1, “Alpha- and gamma-MSH analogues” (TXP Pharma GmbH, priority 2014, published 2015).

For test [1], the target named is T1, human MC1r (Homo sapiens, UniProt Q01726). In words: Test 3: receptor efficacy, cAMP enzyme immunoassay in stably transfected HEK cells expressing the human MC1r. Type of test: cell-based. Further details: expressed in transfected cells. As to conditions: for Emax: HEK293, IBMX present, read-out: maximal efficacy Emax (max efficacy expressed as percent of αMSH); for EC50: IBMX present. An excerpt:
The immune modulating effects of melanocortins are mediated through MC1r and/or MC3r stimulation on immune competent cells in tissues, organs and plasma. MC1r and/or MC3r are expressed in immune competent cells including monocytes, macrophages, neutrophils t-cells and dendritic cells. Stimulation of the MCr1 and/or MC3r is associated with attenuation of cytokine production and activation of pro-resolving effects. The binding affinity and the receptor efficacy (alternative expression is potency) of a given melanocortin together, in some embodiments, makes up the overall efficacy of a given compound.
Alternatively MCR1 receptor efficacy was tested in stably transfected HEK cells expressing the human MC1r. Cells were grown in Dulbecco's modified Eagle's medium 1885 supplemented with 10% fetal calf serum, 2 mm glutamine, and 0.01 mg/ml gentamicin. The expression plasmids containing the cDNAs encoding the wild-type or the mutated receptors were expressed after transfection according to the calcium phosphate precipitation method. The cells were kept frozen until the experiments where the cells was grown in RPMI 1640 medium supplemented with 2 mm 1-glutamine adjusted to contain 1.5 g/liter sodium bicarbonate, 4.5 g/liter glucose, 10 mm HEPES, 1.0 mm sodium pyruvate, and 10% fetal bovine serum.
Cells (2.5×10^5 cells per well) were incubated for 15 min at 37° C. in 1 ml of freshly prepared binding buffer supplemented with 5.10-4 M of the non-specific phosphodiesterase inhibitor 3-Isobutyl-1-methylxanthine (IBMX), 40 μg/ml bacitracin, and various concentrations of test compound. After incubation, cells were placed on ice, medium was removed, and cells lysed. Measurement of cAMP in the samples was conducted by use of a commercial cAMP Enzyme Immunoassay kit from Cayman Chemicals (Cat. No 581001). All cAMP concentrations were expressed relative to the total number of cells in the individual samples.

Test [2] concerns the target T1, human MC1r. In words: Test 2: receptor efficacy, cAMP production (HTRF) in CHO-K1 cells expressing MC1r. As to conditions: nM of cAMP, IBMX 1 mM. A general note: Cyclic AMP is a second messenger, typically raised through Gs and lowered through Gi signalling.
Description: CHO-Kl cells expressing either the MC1r or the MC3r grown in media without antibiotic were detached by gentle flushing with PBS-EDTA (5 mM EDTA), recovered by centrifugation and resuspended in assay buffer (KRH: 5 mM KCl, 1.25 mM MgSO4, 124 mM NaCl, 25 mM HEPES, 13.3 mM Glucose, 1.25 mM KH2PO4, 1.45 mM CaC12, 0.5 g/1 BSA).
12 μl of cells were mixed with 12 μl of the test compound at increasing concentrations in 96 wells plates and then incubated 30 min at room temperature. cAMP production was determined after addition of a lysis buffer and 1 hour incubation, by use of competitive immunoassay using cryptate-labeled anti-cAMP and d2-labeled cAMP (HTRF kit from CisBio) with Delta F percentage values calculated according to the manufacturer specification. Dose response curves were performed in parallel with test compounds, and reference compounds.
The HTRF technology is a titration assay based on a competition between labeled cAMP (exogenous) and cAMP produced by the cell after activation of the MCr. The dynamic range of the assay was 3-4 fold meaning that the linear range (which enables conversion from raw data to nM of cAMP) is within that range.
Data is presented as mean values.
In test [3] the test system is normal human lung fibroblasts (NHLF). As to conditions: TGFβ1-induced NHLF, at higher doses; U.S. provisional application 61/785,631; cited from earlier work.

T1 sequence (Q01726 whole entry): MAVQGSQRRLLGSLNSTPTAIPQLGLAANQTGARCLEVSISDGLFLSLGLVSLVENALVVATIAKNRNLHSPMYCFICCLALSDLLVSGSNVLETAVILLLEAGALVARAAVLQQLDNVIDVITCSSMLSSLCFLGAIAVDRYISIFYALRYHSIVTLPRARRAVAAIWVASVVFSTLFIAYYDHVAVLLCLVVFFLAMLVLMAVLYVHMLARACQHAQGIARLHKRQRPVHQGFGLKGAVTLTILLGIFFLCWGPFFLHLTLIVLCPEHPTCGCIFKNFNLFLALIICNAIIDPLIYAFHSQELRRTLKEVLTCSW

One may read the Emax as the greatest response seen or fitted, relative to the assay's reference. As a reminder, the EC50 is the concentration giving half of the maximal effect. In the case of `CCCC[C@H](NC(=O)[C@H](CO)NC(=O)[C@H](Cc1ccc(O)cc1)NC(=O)[C@H](CO)NC(=O)[C@H](CCCCN)NC(=O)[C@H](CCCCN)NC(=O)[C@H](CCCCN)NC(=O)[C@H](CCCCN)NC(=O)[C@H](CCCCN)NC(=O)[C@H](CCCCN)NC(C)=O)C(=O)N[C@@H](CCC(=O)O)C(=O)N[C@@H](Cc1c[nH]cn1)C(=O)N[C@H](Cc1ccccc1)C(=O)N[C@@H](CCCNC(=N)N)C(=O)N[C@@H](Cc1c[nH]c2ccccc12)C(=O)NCC(=O)N[C@@H](CCCCN)C(=O)N1CCC[C@H]1C(=O)N[C@H](C(N)=O)C(C)C` [Ac(Lys)6-NDP-αMSH, Ac(Lys)6-Ser-Tyr-Ser-Nle Glu-His-(D-Phe)-Arg-Trp-Gly-Lys-Pro-Val-NH2], at human MC1r [1], the Emax amounted to 62 ± 8% and the half-maximal effective concentration (EC50) worked out at 1.35 nM. As for `CSCC[C@H](NC(=O)[C@H](CO)NC(=O)[C@H](Cc1ccc(O)cc1)NC(=O)[C@H](CO)NC(=O)[C@H](CCCCN)NC(=O)[C@H](CCCCN)NC(=O)[C@H](CCCCN)NC(=O)[C@H](CCCCN)NC(=O)[C@H](CCCCN)NC(=O)[C@H](CCCCN)NC(C)=O)C(=O)N[C@@H](CCC(=O)O)C(=O)N[C@@H](Cc1c[nH]cn1)C(=O)N[C@@H](Cc1ccccc1)C(=O)N[C@@H](CCCNC(=N)N)C(=O)N[C@@H](Cc1c[nH]c2ccccc12)C(=O)NCC(=O)N[C@@H](CCCCN)C(=O)N1CCC[C@H]1C(=O)N[C@H](C(N)=O)C(C)C` [Ac(Lys)6-αMSH], on human MC1r [1], the Emax is 72 ± 5% and a half-maximal response (EC50) required 2.12 nM. For the same compound, the “maximal efficacy (Emax)” value at human MC1r [2] is about 3 nM. Consider `CSCC[C@H](NC(=O)[C@H](CO)NC(=O)[C@H](Cc1ccc(O)cc1)NC(=O)[C@H](CO)NC(=O)[C@H](CCCCNC(=O)[C@H](CCCCN)NC(=O)[C@H](CCCCN)NC(C)=O)NC(C)=O)C(=O)N[C@@H](CCC(=O)O)C(=O)N[C@@H](Cc1c[nH]cn1)C(=O)N[C@@H](Cc1ccccc1)C(=O)N[C@@H](CCCNC(=N)N)C(=O)N[C@@H](Cc1c[nH]c2ccccc12)C(=O)NCC(=O)N[C@@H](CCCCN)C(=O)N1CCC[C@H]1C(=O)N[C@H](C(N)=O)C(C)C` [α-MSH analogue #1], for which the “maximal efficacy (Emax)” value on human MC1r [2] is recorded as about 3 nM. With “ACTH: Adrenocorticotropic hormone, the native ligand to the type 2 receptor (MC2r) (SYSMEHFRWGKPVGKKRRPVKVYPNGAEDESAEAFPLEF; Corticotropin; UniProt P01189 138-176, looked up)”, in test [3], the “effect on ECM collagen” value is listed as “statistically significant reduction in ECM collagen”.
